Each block holds one molecule with its values, some of them ahead of it.
Tests used:
[1] = test system: form deprivation myopia guinea pigs; experiment: Sorbinil and Zopolrestat in form deprivation myopia model, Example 9; conditions: FD, Sorbinil 100 μM, Zopolrestat 1 mM; for diopter or axial length parameter versus the vehicle group: each test time point (1-week, 2-week), FIG. 13; for corneal curvature, anterior chamber depth and lens thickness: FIG. 14
[2] = test system: form deprivation myopia guinea pigs; experiment: m-Hydroxy methylaniline in form deprivation myopia model, Example 10; assay type: in vivo, guinea pig; conditions: FD; for effect of preventing or treating myopia: subconjunctival injection 100 μl once daily for 1 week, atropine 0.1%
Method: The efficacy was evaluated using the guinea pig in form deprivation myopia model described in this application. All subjects were measured for diopter and axial length. […] Diopter and axis length parameters were measured at the beginning and after the end of the efficacy experiment.

[3] = test system: form deprivation myopia guinea pigs; experiment: Direct eye drop administration in form deprivation myopia model, Example 7; conditions: for inhibition rate on myopia: direct eye drop 25 μl twice per day, 0.5% bendazac lysine (self-made); for elongation of axial length compared with the normal saline group: eye drop twice per day for 2 weeks, statistical difference
From the text: All efficacy experiments above were repeated at least twice.

[4] = test system: form deprivation myopia guinea pigs; experiment: Lysine alone and bendazac alone in form deprivation myopia model, Example 8; assay type: in vivo, guinea pig; conditions: FD; for progress of myopia (diopter becoming negative, vitreous chamber depth, axial length): subconjunctival injection 100 μl once daily for 2 weeks, equimolar (11.669 mM) preparations, FIG. 8; for ocular abnormalities / pupil, corneal curvature, anterior chamber depth and lens thickness: subconjunctival injection once daily for 2 weeks; for pupil, corneal curvature, anterior chamber depth and lens thickness: FIGS. 10 and 11; for myopia inhibition rate compared with DMSO vehicle control group: bendazac 3.3 mg/ml (11.669 mM) subconjunctival injection 100 μl once daily
[5] = test system: guinea pigs with form deprivation myopia; experiment: Form deprivation (FD) myopia model, peribulbar injection, Example 3; conditions: for induced myopia (diopter) / myopia inhibition rate compared with normal saline group: peribulbar injection once daily (bendazac lysine 0.5 mg/day; atropine 0.1%, 100 μL)
[6] = test system: guinea pigs with lens induced myopia; experiment: Lens induced (LI, -4D lens) myopia model, peribulbar injection, Example 3; assay type: in vivo, guinea pig; conditions: bendazac lysine 0.5 mg/day peribulbar injection
[7] = test system: lens induced myopia (LIM) guinea pigs; experiment: Choroidal thickness (OCT) in LIM model, Example 6; assay type: in vivo, guinea pig; conditions: 0.5% bendazac lysine (BDL(S)) subconjunctival injection once daily for 1 week, 30-60 min after last administration
Method: (§1) The lenses were purchased from Wenzhou Focusee Technology Co. Ltd. The specific parameters were: center degree 4D, base curve 16 mm, and diameter 11.8 mm. The lenses were fixed in front of the right eye (experimental eye) of the guinea pig and the left eye (fellow eye) was left untreated. […] The choroidal thickness of all eyes in the two myopia models was detected by Spectralis HRA+OCT (Heidelberg Engineering, Heidelberg, Germany) at 30-60 min after the last administration. […] The statistical method was an independent sample T-test.

[8] = test system: form deprivation myopia (FDM) guinea pigs; experiment: Choroidal thickness (OCT) in FDM model, Example 6; assay type: in vivo, guinea pig
Method: as §1

[9] = test system: form deprivation myopia (FDM) guinea pigs; experiment: Dose-response of bendazac lysine (0.01%-0.5%) in form deprivation myopia model, Example 5
From the text: To be more intuitive, percentage are converted to milligram units when plotting.

[10] = m-hydroxy methylaniline 5 mM, FIG. 15
[11] = FD, 0.5% bendazac lysine, 0.1% atropine
[12] = LI (-4D lens), 1-week of administration

- corneal curvature, anterior chamber depth and lens thickness [1]: no effect
Molecule: O=C1NC(=O)[C@@]2(CCOc3ccc(F)cc32)N1 [Sorbinil]
- diopter or axial length parameter versus the vehicle group [1]: no significant difference
- therapeutic effect on myopia ([1]; subconjunctival injection 100 μl once daily for 2 weeks): no therapeutic effect on myopia

- corneal curvature, anterior chamber depth and lens thickness [1]: no effect
Molecule: O=C(O)Cc1nn(Cc2nc3cc(C(F)(F)F)ccc3s2)c(=O)c2ccccc12 [Zopolrestat]
- diopter or axial length parameter versus the vehicle group [1]: no significant difference

Molecule: CN1[C@@H]2CC[C@H]1C[C@@H](OC(=O)C(CO)c1ccccc1)C2 (some centres unmarked) [atropine]
- anterior chamber depth and lens thickness ([2]; 0.1% atropine, FIG. 15): unaffected
- pupil ([2]; 0.1% atropine, all animals tested in this group): pupil dilation
- effect of preventing or treating myopia [2, 10]: normal effect for treating myopia
- therapeutic effect (diopter or axial length parameter) ([3]; FD, 0.01% atropine eye drops, same administration conditions): No therapeutic effect was observed
- inhibition rate on myopia ([3]; FD, 1-week, 0.1% atropine): 28.1%
- inhibition rate on myopia ([3]; FD, 2-week, 0.1% atropine): 36.9%
- elongation of axial length compared with the normal saline group [3, 11]: significantly inhibit elongation of axial length
- ocular adverse reactions during the administration ([3]; FD, eye drop twice per day, 0.5% bendazac lysine, 0.1% atropine): pupil dilation adverse reactions
- corneal curvature, anterior chamber and lens ([3]; FD, eye drop twice per day, 0.5% bendazac lysine, 0.1% atropine, FIG. 7): not affected

Molecule: O=C(O)COc1nn(Cc2ccccc2)c2ccccc12 [bendazac lysine, L-lysine (1-benzyl-1H-indazol-3-yloxy) acetate]
- progress of myopia (diopter becoming negative, vitreous chamber depth, axial length) [4]: effectively inhibited the progress of diopter becoming negative
- ocular abnormalities [4]: no obvious ocular abnormalities
- pupil, corneal curvature, anterior chamber depth and lens thickness [4]: not affected
- corneal curvature (RCC), anterior chamber depth (ACD), lens thickness (LT) ([5]; FD and LI groups, 0.5 mg/day peribulbar injection, FIG. 2): not affected
- induced myopia (diopter) ([5]; FD, 1-week of administration): −2.15±1.09 D
- myopia inhibition rate compared with normal saline group ([5]; FD, 1-week of administration): 42.6%
- induced myopia (diopter) ([5]; FD, 2-week of administration): −3.46 D
- myopia inhibition rate compared with normal saline group ([5]; FD, 2-week of administration): 43.9%
- increase in vitreous chamber depth and axial length ([5]; FD, bendazac lysine 0.5 mg/day peribulbar injection, FIG. 1): inhibited
- induced myopia (diopter) [6, 12]: −3.49±1.15 D
- myopia inhibition rate compared to the normal saline group [6, 12]: 21.0%
- elongation of the vitreous chamber depth and the axial length ([6]; LI, 1 week): inhibited
- mean difference in choroidal thickness between the experimental and the fellow eyes [7]: −6.31 μm
- corneal curvature (RCC), anterior chamber depth (ACD), lens thickness (LT) ([8]; FDM and LIM, 0.5% BDL(S)): unaffected
- mean difference in choroidal thickness between the experimental eye and the fellow eye ([8]; FDM, 0.5% bendazac lysine eye drops (BDL(S)) subconjunctival injection 100 μl once daily for 2 weeks, 30-60 min after last administration): −9.20 μm
- effect in terms of the parameter diopter ([9]; FDM, 0.01% bendazac lysine, 2-week, no statistical difference): slightly stronger than the negative control group
- progress of myopia, dose-response ([9]; FDM, 0.01%, 0.05%, 0.1%, 0.5% in normal saline, subconjunctival injection 100 μl once daily for 2 weeks): dose-dependently retarded the progress of myopia
- therapeutic effect on myopia (progress of diopter becoming negative) ([9]; FDM, 0.05% and 0.1% bendazac lysine preparations): significant therapeutic effect on myopia
- increase in vitreous chamber depth (VCD) and elongation of axial length (AL) ([9]; FDM, 0.05%, 0.1% and 0.5% bendazac lysine, FIG. 3): inhibit the increase in vitreous chamber depth (VCD) and the elongation of axial length (AL)
- therapeutic effect on myopia in terms of diopter, compared with 0.1% atropine ([9]; FDM, 0.5% bendazac lysine, 1-week after administration, no statistical difference): better therapeutic effect on myopia than 0.1% atropine
- anterior chamber depth, lens thickness and pupil ([9]; guinea pig, in vivo): not affected
- ocular irritation and ocular abnormalities during administration ([9]; guinea pig, in vivo): No ocular irritation and any ocular abnormalities were observed
- inhibition rate on myopia ([3]; FD, 1-week, 0.1% atropine): 35.5%
- inhibition rate on myopia ([3]; FD, 2-week, 0.1% atropine): 33.9%
- elongation of axial length compared with the normal saline group [3, 11]: significantly inhibit elongation of axial length
- corneal curvature, anterior chamber and lens ([3]; guinea pig, in vivo): not affected
- ocular adverse reactions during the administration ([3]; guinea pig, in vivo): no obvious ocular abnormalities

Molecule: O=C(O)COc1nn(Cc2ccccc2)c2ccccc12 [bendazac, α-[(1-benzyl-1H-indazol-3-yl)oxy] acetic acid]
- myopia inhibition rate compared with DMSO vehicle control group ([4]; 1-week): 33.4%
- mean difference in the choroidal thickness between the experimental eyes and the fellow eyes ([4]; 2-week after administration of bendazac alone, FIG. 12): −8.47 μm
- myopia inhibition rate compared with DMSO vehicle control group ([4]; 2-week): 30.1%
- elongation of axial length and increase of vitreous chamber depth compared with the DMSO vehicle group ([4]; bendazac alone, statistical difference, FIG. 9): significantly inhibited elongation of axial length and reduced the increase of vitreous chamber depth

Molecule: NCCCC[C@H](N)C(=O)O [lysine]
- progress of myopia (diopter becoming negative, vitreous chamber depth, axial length) [4]: no inhibitory effect on the progress of myopia
- ocular abnormalities [4]: no obvious ocular abnormalities
- pupil, corneal curvature, anterior chamber depth and lens thickness [4]: not affected

Molecule: m-hydroxy methylaniline
- elongation of axial length and increase of vitreous chamber depth ([2]; 1 week, m-hydroxy methylaniline 5 mM): no inhibitory effect on elongation of axial length and no slowing effect on the increase of vitreous chamber depth
- effect of preventing or treating myopia [2, 10]: no effect of preventing or treating myopia

Reference: patent publication US20240216332A1, “METHOD AND PHARMACEUTICAL COMPOSITION FOR TREATING MYOPIA” (GRAND PHARMA (CHINA) CO., LTD., priority 2021, published 2024)
